Assay results: patent US10066204B2, “Chemically labile peptide-presenting surfaces for cellular self-assembly” (Wisconsin Alumni Research Foundation, priority 2013, dated 2018)
Where two headings read alike, the source gives them in different places.

Assays:
[1] = test system: hESC (H1); settings: for cell adhesion of the hESC monolayer by adhesion ligand on the array spot: FIG. 2B/2C
Method: Gold slides were placed into a 150 mm glass Petri dish, covered with EtOH and sonicated for ˜1 minute using an ultrasonic bath (Bransonic 1510, Branson, Danbury, Conn.). Sonicated gold chips were then rinsed with EtOH and blown dry with N2. […] For spot shape, elastomeric stencils with arrays in the shape of circles, ovals, and oval cross were placed on a bare gold surface to form an array of wells having these shapes on the gold substrate. Wells were then filled with 1 mM ethanolic alkanethiolate solution and incubated for 10 minutes in a chamber containing a laboratory wipe soaked in ethanol to prevent evaporation during local SAM formation. Alkanethiolate solutions were then aspirated and wells were rinsed with DIUF H2O. Carboxylate groups were then converted to active ester groups by adding a solution of 100 mM NHS and 250 mM EDC in DIUF H2O pH 5.5 to wells and incubated for 10 minutes. After an additional rinse with DIUF H2O, 300 μM solutions of […] (SEQ ID NO: 5; commercially available from GenScript, Piscataway, N.J.) or […] (SEQ ID NO: 6; commercially available from GenScript, Piscataway, N.J.) in PBS and pH 7.4 were added to each well and incubated for 1 hour in a humidity controlled chamber to covalently couple peptides to each array spot. After a final rinse in DIUF H2O, regions surrounding array spots were backfilled with HS—C11-EG3-OH. This was accomplished by submerging the gold substrate and attached elastomeric stencil in an aqueous 0.1 mM HS—C11-EG3-OH solution (pH 2.0), removing the stencil, and incubating for 10 minutes. Following backfilling, the array was rinsed with 0.1 wt % SDS in DIUF H2O, DIUF H2O, and EtOH and then dried under a stream of N2. Arrays were stored in sterile DIUF H2O at 4° C. and used within 24 hours.
Pluripotent stem cells were seeded on arrays at a density of 10^5 cells/cm^2. […] Colonies that spontaneously detached from SAM spots were also harvested. Colonies were analyzed for Oct 3/4 and Nanog expression by immunofluorescence using DAPI to stain nuclei.
The concentration of the integrin adhesion peptides […] (SEQ ID NO: 1) and cyclic RGD (SEQ ID NO: 4) on the array spot was varied between 2% and 10% by the fraction of COOH groups functionalized with peptides present at the spot among background OH functionalities.
After initial attachment of the cells to the glycosaminoglycan binding peptide […]
Specifically, a 1:1 functionalization with cyclic RGD (SEQ ID NO: 4) and […]

[2] = test system: hESC monolayers (H1 hESC line); settings: for effect of soluble peptide on kinetics of aggregate assembly: 0.1 mM soluble peptide in culture media; for change in hESC colony projected area (indicative of aggregate self-assembly): both 5% COOH and 0.5% COOH SAMs
Method: Gold slides were placed into a 150 mm glass Petri dish, covered with EtOH and sonicated for 2 minutes using an ultrasonic bath (Bransonic 1510, Branson, Danbury, Conn.). Sonicated gold chips were then rinsed with EtOH and blown dry with N2. […] Wells were then filled with 1 mM ethanolic alkanethiolate solution and incubated for approximately 10 minutes at room temperature in a chamber containing a laboratory wipe soaked in ethanol to prevent evaporation during local SAM formation. Alkanethiolate solutions were then aspirated and wells were rinsed with DIUF H2O. Carboxylate groups were then converted to active ester groups by adding a solution of 100 mM NHS and 250 mM EDC (in pH 5.5 DIUF H2O) to wells and incubating for 15 minutes. After an additional rinse with DIUF H2O, 300 μM solutions of peptide(s) in pH 7.4 PBS were added to each well and incubated for 1 hour in a humidity-controlled chamber at room temperature to covalently couple peptides to each array spot. After a final rinse in DIUF H2O, regions surrounding array spots were backfilled with HS—C11-EG3-OH. This was accomplished by submerging the gold substrate and attached elastomeric stencil in an aqueous 0.1 mM HS—C11-EG3-OH solution (pH 2.0), removing the stencil, and incubating for 10 minutes. Following backfilling, the array was rinsed with 0.1 wt % SDS in DIUF H2O, DIUF H2O, and EtOH, and then dried under a stream of N2. Arrays were stored away from light in diH2O at room temperature and used within 24 hours.
Pluripotent stem cells (H1 hESC line) were seeded on arrays at a density of approximately 2×10^5 cells/cm^2 to achieve confluent monolayers within 4 hours.
(§1) Time lapse images were analyzed using edge detection software to track projected area of colonies with respect to initial colony area over time. A t50 of self-assembly was defined as the length of time required for a given patterned cell monolayer to reach 50% of its original 2D projected area, as assessed by automated edge detection. This metric is used throughout this specification to describe differences in the kinetics of aggregate self-assembly between different cell types and in different conditions.

[3] = test system: hESC monolayers; settings: 5% SAMs
Method: Colonies were analyzed for Oct4 and Nanog expression by immunofluorescence using DAPI to stain nuclei.
Self-assembled EBs formed from largely pluripotent 2D hESC populations. hESC monolayers cultured on array spots were stained for pluripotency markers Oct4 and Nanog, as well as DAPI to identify cell nuclei. […] Quantification of positive staining for Oct4 and Nanog, relative to number of cells as quantified by DAPI staining, is shown in FIG. 25B. […] Nanog was expressed by 89% and 93% of hESCs in monolayers at 4 hours and 24 hours, respectively.

[4] = test system: hMSC monolayers
Method: as §1
hMSCs or hDFs were seeded on arrays at a density of ˜1×10^5 cells/cm^2 to achieve confluent monolayers within 4 hours. Cells were cultured on SAMs in αMEM media containing 10% fetal bovine serum (FBS) for 2 hours after seeding. At this time, SAM arrays were rinsed in basal medium to remove nonspecifically adhered cells and replaced in fresh αMEM+10% FBS.
In this Example, the beginning of self-assembly is characterized by the time point at which an evident decrease in projected area of the cell monolayer first occurs. The completion of self-assembly is considered the time point at which no further decreases in monolayer projected area occur, and is marked by the appearance of a plateau in graphical traces of monolayer projected area (see FIG. 28A).

[5] = test system: hESC monolayers; settings: 5% SAMs, circular spots of 1.2 mm diameter
Method: Polymer stencils containing arrays of wells were created using soft lithography. Master molds containing arrays of 1.2 mm, 1.8 mm, and 2.4 mm diameter circular posts or oval-shaped or quatrefoil-shaped posts were fabricated from SU-8 (Microchem, Newton, Mass.) spin-coated silicon wafers using conventional photolithography techniques. Polydimethylsiloxane (PDMS) (Sylgard 184, Dow Corning, Midland, Mich.) was prepared by mixing a 10:1 ratio of base:curing agent (w/w) followed by degassing for approximately 45 minutes. The degassed mixture was cast over the mold and cured for 6 hours at 80° C. Following curing, PDMS stencils were removed from molds and cleaned in hexane using overnight Soxhlet extraction.

[6] = test system: hESCs (H1 line); settings: EBs from 5% SAMs, 24 hours post-assembly

CGKKQRFRHRNRKG
cell adhesion of the hESC monolayer by adhesion ligand on the array spot [1]: significantly less cell attachment
time until cells detached after initial attachment ([1]; array spots presenting the peptide): ≤ 12 h

GWGGRGDSP
cell adhesion of the hESC monolayer by adhesion ligand on the array spot [1]: best cell adhesion

GWGGRGESP [reference compound]
cell adhesion of the hESC monolayer by adhesion ligand on the array spot [1]: No significant differences

KRTGQYKL
cell adhesion of the hESC monolayer by adhesion ligand on the array spot [1]: no significant adhesion

cyclo(RADFDK) [reference compound]
effect of soluble peptide on kinetics of aggregate assembly ([2]; hESC on 5% cyclo(RGDFDC) SAMs): no evident effect

cyclo(RGDFDC)
hESC cell adhesion as a function of adhesion ligand density ([1]; 2% COOH fraction compared to 5% COOH, 4 to 48 hours in culture): significantly lower cell adhesion
hESC cell adhesion as a function of adhesion ligand density ([1]; 10% COOH fraction compared to 5% COOH): did not lead to an improved attachment
cell adhesion of the hESC monolayer by adhesion ligand on the array spot [1]: best cell adhesion
effect of soluble peptide on kinetics of aggregate assembly ([2]; hESC on 5% cyclo(RGDFDC) SAMs): most rapid aggregate assembly
time of forming three-dimensional cellular aggregates floating in suspension ([2]; 5% COOH SAMs): 72 to 96 h
effect of soluble peptide on kinetics of aggregate assembly versus control ([2]; […] soluble peptide in culture media, hESC on 5% cyclo(RGDFDC) SAMs): faster aggregate assembly
change in hESC colony projected area (indicative of aggregate self-assembly) [2]: evident decreases
t50 of self-assembly ([2]; hESC, 0.01% peptide SAMs): approximately 14 hours
t50 of self-assembly ([2]; hESC, 0.5% COOH SAMs): approximately 22 hours
beginning of the self-assembly process after initial seeding ([2]; hESC, 5% COOH SAMs): 40 to 48 h
completion of the self-assembly process after initial seeding ([2]; hESC, 5% SAMs): ≤ 72 h
t50 of self-assembly ([2]; hESC, 5% peptide SAMs): approximately 45 hours
hESCs in monolayers expressing Nanog ([3]; 4 hours after seeding): 89%
hESCs in monolayers expressing Oct4 ([3]; 4 hours after seeding): greater than 97%
hESCs in monolayers expressing Nanog ([3]; 24 hours after seeding): 93%
hESCs in monolayers expressing Oct4 ([3]; 24 hours after seeding): 93%
beginning of self-assembly after initial seeding [4]: ≤ 24 h
completion of self-assembly after initial seeding [4]: ≤ 36 h
t50 of self-assembly of hMSCs [4]: approximately 30 hours
time to form self-assembled EBs [5]: ≤ 72 h
Nanog+ cells dissociated from EBs [6]: approximately 91%
Oct4+ cells dissociated from EBs [6]: approximately 99%

cyclo(RGDFDK) [reference compound]
cellular self-assembly behavior of hESC monolayers ([2]; 5% COOH SAMs): no cellular self-assembly behavior
change in hESC colony projected area (indicative of aggregate self-assembly) [2]: no such decreases
detachment of hESC monolayers ([2]; over 96 hours): no observable detachment
